Measured values taken from ChEMBL document CHEMBL1201862, “PubChem BioAssay data set” (2004).
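Exposure lasted 48 hours, with cells grown in 96-well plates and compounds tested at five concentrations. Abbreviation: GI50, concentration required for 50% inhibition of growth.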 Active and inactive are the calls of the source. Cut-off read from the data, not from the text of the source: active = GI50 up to about 1.1 µM and inactive = higher.

What was measured:
Assay in all cases: DTP human tumour cell line panel, 48 h
[1] = test system: SN12C
[2] = test system: HOP-92
[3] = test system: SF-268
[4] = test system: MDA-MB-435
[5] = test system: SK-MEL-5
[6] = test system: OVCAR-5
[7] = test system: UACC-62
[8] = test system: MCF7
[9] = test system: DU-145
[10] = test system: HOP-62
[11] = test system: NCI-H522
[12] = test system: KM12
[13] = test system: SW-620
[14] = test system: SF-539
[15] = test system: BT-549
[16] = test system: TK-10
[17] = test system: COLO 205
[18] = test system: MDA-MB-231
[19] = test system: HL-60

| Compound | GI50 [1] | GI50 [2] | GI50 [3] | GI50 [4] | GI50 [5] | GI50 [6] | GI50 [7] | GI50 [8] | GI50 [9] | GI50 [10] | GI50 [11] | GI50 [12] | GI50 [13] | GI50 [14] | GI50 [15] | GI50 [16] | GI50 [17] | GI50 [18] | GI50 [19] |
| --- | --- | --- | --- | --- | --- | --- | --- | --- | --- | --- | --- | --- | --- | --- | --- | --- | --- | --- | --- |
| COC(=O)C1=CO[C@@H](OC2OC(CO)C(O)C(O)C2O)[C@@H]2[C@H](C)[C@@H](O)[C@@H](O)[C@]12O (some centres not stated) | > 100 µM (inactive) | > 100 µM (inactive) | > 100 µM (inactive) | > 100 µM (inactive) | > 100 µM (inactive) | > 100 µM (inactive) | > 100 µM (inactive) | > 100 µM (inactive) | > 100 µM (inactive) | > 100 µM (inactive) | > 100 µM (inactive) | > 100 µM (inactive) | > 100 µM (inactive) | > 100 µM (inactive) | > 100 µM (inactive) | > 100 µM (inactive) | > 100 µM (inactive) | 34.8 µM (inactive) | > 100 µM (inactive) |
| CC1(C)C(=O)C(C)(C)C12SSC1(S2)C(C)(C)C(=O)C1(C)C | > 100 µM (inactive) | > 100 µM (inactive) | > 100 µM (inactive) | > 100 µM (inactive) | > 100 µM (inactive) | > 100 µM (inactive) | > 100 µM (inactive) | > 100 µM (inactive) | > 100 µM (inactive) | > 100 µM (inactive) |  | > 100 µM (inactive) | > 100 µM (inactive) | > 100 µM (inactive) | > 100 µM (inactive) | > 100 µM (inactive) | 67 µM (inactive) | > 100 µM (inactive) | 2.41 µM (inactive) |
| c1ccc2c(c1)OC(N1CCCC1)c1cnc(N3CCOCC3)nc1-2 (configuration not stated) | 32 µM (inactive) | 16.8 µM (inactive) | 40.6 µM (inactive) | 67 µM (inactive) |  | 22.5 µM (inactive) | 43.1 µM (inactive) | 10.8 µM (inactive) | 66.8 µM (inactive) | 57.5 µM (inactive) |  | > 100 µM (inactive) | 91 µM (inactive) | > 100 µM (inactive) | 17.1 µM (inactive) | 29.9 µM (inactive) | 51.2 µM (inactive) | 45.1 µM (inactive) | 74.1 µM (inactive) |
| CCOC(=O)c1ccc(Nc2nc3ccccc3nc2C(=O)OCC)cc1 | > 100 µM (inactive) | 43.1 µM (inactive) | > 100 µM (inactive) | > 100 µM (inactive) | > 100 µM (inactive) | > 100 µM (inactive) | > 100 µM (inactive) | > 100 µM (inactive) | > 100 µM (inactive) | > 100 µM (inactive) | > 100 µM (inactive) | 75.5 µM (inactive) |  | > 100 µM (inactive) | > 100 µM (inactive) | > 100 µM (inactive) | > 100 µM (inactive) | > 100 µM (inactive) | > 100 µM (inactive) |
| CN1CCN(C(=O)CCC(=O)Nc2cc3c(c4ccccc24)-c2ccc4ccccc4c2C3)CC1 | 1.79 µM (inactive) | 1.73 µM (inactive) | 1.8 µM (inactive) | 1.51 µM (inactive) | 1.6 µM (inactive) | 1.67 µM (inactive) | 1.7 µM (inactive) | 1.51 µM (inactive) | 1.77 µM (inactive) | 1.69 µM (inactive) | 1.63 µM (inactive) | 1.55 µM (inactive) |  | 1.73 µM (inactive) | 1.35 µM (inactive) | 1.73 µM (inactive) | 1.6 µM (inactive) | 1.26 µM (inactive) | 2 µM (inactive) |
| CCCCCCCCCc1c(O)c(O)c(CCCCCCCCC)c(CCCCCCCCC)c1CCCCCCCCC | > 100 µM (inactive) |  | > 100 µM (inactive) | 47.2 µM (inactive) | > 100 µM (inactive) | > 100 µM (inactive) | > 100 µM (inactive) | 8.18 µM (inactive) | > 100 µM (inactive) | > 100 µM (inactive) | 30.2 µM (inactive) | > 100 µM (inactive) | > 100 µM (inactive) | > 100 µM (inactive) | > 100 µM (inactive) | > 100 µM (inactive) | > 100 µM (inactive) | > 100 µM (inactive) | 26.4 µM (inactive) |
| Oc1cc(O)c2c(c1)O[C@H](c1cc(O)c(O)c(O)c1)[C@H](O)C2 [EPIGALLOCATECHIN] | 20.5 µM (inactive) | 20.7 µM (inactive) | 25.4 µM (inactive) | 6.9 µM (inactive) | 16.9 µM (inactive) | 15.6 µM (inactive) |  | 20.8 µM (inactive) | 63.7 µM (inactive) | 19.7 µM (inactive) | 17.7 µM (inactive) |  | 17.5 µM (inactive) | 20.3 µM (inactive) | 19.2 µM (inactive) |  | 18.2 µM (inactive) | 18.7 µM (inactive) | 19.5 µM (inactive) |
| C/C(=N\NC(=S)Nc1ccccc1)c1nc2cccnc2[nH]1 | 4.33 µM (inactive) | 12.9 µM (inactive) | 0.583 µM (active) | 3.7 µM (inactive) | 2.69 µM (inactive) | 4.79 µM (inactive) | 2.85 µM (inactive) | 0.338 µM (active) | 2.84 µM (inactive) | 8.47 µM (inactive) | 2.18 µM (inactive) | 7.08 µM (inactive) | 4.97 µM (inactive) | 1.46 µM (inactive) | 5.26 µM (inactive) |  | 3.78 µM (inactive) | 1.06 µM (active) | 2.92 µM (inactive) |
| Cc1c(/N=N/c2ccccc2)c(C)n(C2OC(CO)C(O)C(O)C2O)c(=S)c1C#N (configuration not stated) | 20.7 µM (inactive) | 16.6 µM (inactive) | 17 µM (inactive) | 13.1 µM (inactive) | 12.3 µM (inactive) | 15.1 µM (inactive) | 1.15 µM (inactive) | 22.8 µM (inactive) | 25.1 µM (inactive) | 25.5 µM (inactive) |  | 33.5 µM (inactive) | 29.4 µM (inactive) | 24.1 µM (inactive) | 19.9 µM (inactive) | 27 µM (inactive) | 42 µM (inactive) | 45.3 µM (inactive) | 34.1 µM (inactive) |
| CCOC(=O)c1sc2c(c1O)c(=O)n(-c1ccccc1)c(=S)n2-c1ccccc1 | 61.1 µM (inactive) | 86.1 µM (inactive) | > 100 µM (inactive) | > 100 µM (inactive) | > 100 µM (inactive) | > 100 µM (inactive) | 84.3 µM (inactive) | 67.6 µM (inactive) | 71.8 µM (inactive) |  | 46.6 µM (inactive) | 46.7 µM (inactive) | 99.3 µM (inactive) |  | 56.6 µM (inactive) | > 100 µM (inactive) | > 100 µM (inactive) | > 100 µM (inactive) | 35.1 µM (inactive) |
| CN1C2CCC1C(C(O)c1ccccc1[N+](=O)[O-])C(=O)C2 (configuration not stated) | 33.7 µM (inactive) |  | 57.1 µM (inactive) | 23.6 µM (inactive) | 31.1 µM (inactive) | > 100 µM (inactive) | > 100 µM (inactive) | 39.1 µM (inactive) | 28.3 µM (inactive) | 45.3 µM (inactive) | 40.3 µM (inactive) | 36.5 µM (inactive) | 45.2 µM (inactive) | 29.8 µM (inactive) | 43.9 µM (inactive) | > 100 µM (inactive) | 34.6 µM (inactive) | 64 µM (inactive) | 31.8 µM (inactive) |
| CN(C(=O)Cc1ccccc1)n1cn[n+](CC(=O)OC(C)(C)C)c1 | > 10 µM (inactive) | > 10 µM (inactive) | > 10 µM (inactive) | > 10 µM (inactive) | > 10 µM (inactive) | > 10 µM (inactive) | > 10 µM (inactive) | > 10 µM (inactive) | > 10 µM (inactive) | > 10 µM (inactive) | > 10 µM (inactive) | > 10 µM (inactive) | > 10 µM (inactive) | > 10 µM (inactive) | > 10 µM (inactive) | > 10 µM (inactive) | > 10 µM (inactive) | > 10 µM (inactive) |  |
| N=C(CC(=O)NOC(=O)c1ccccc1)NOC(=O)c1ccccc1 | 29.4 µM (inactive) | 39.4 µM (inactive) | 23.2 µM (inactive) | 36.3 µM (inactive) | 36.2 µM (inactive) | 59.6 µM (inactive) | 25.9 µM (inactive) | 25.8 µM (inactive) | > 100 µM (inactive) | 44.8 µM (inactive) |  | 46 µM (inactive) | 50.8 µM (inactive) | 22.1 µM (inactive) | 25.2 µM (inactive) | 52 µM (inactive) | 26.6 µM (inactive) | > 100 µM (inactive) | 78.3 µM (inactive) |
| COc1ccc(-c2ncnc(-c3ccc(OC)c(OC)c3)n2)cc1OC | > 100 µM (inactive) | > 100 µM (inactive) | > 100 µM (inactive) | > 100 µM (inactive) | > 100 µM (inactive) | > 100 µM (inactive) | > 100 µM (inactive) | > 100 µM (inactive) | > 100 µM (inactive) | > 100 µM (inactive) | > 100 µM (inactive) | > 100 µM (inactive) | > 100 µM (inactive) |  | > 100 µM (inactive) | > 100 µM (inactive) | > 100 µM (inactive) | > 100 µM (inactive) | > 100 µM (inactive) |
| COC1(OC)CC(CO)(COc2cc(Cl)nc(N)n2)C1 | > 100 µM (inactive) | > 100 µM (inactive) | > 100 µM (inactive) | > 100 µM (inactive) | > 100 µM (inactive) | > 100 µM (inactive) | > 100 µM (inactive) | > 100 µM (inactive) | > 100 µM (inactive) | > 100 µM (inactive) | > 100 µM (inactive) | > 100 µM (inactive) | > 100 µM (inactive) | > 100 µM (inactive) | > 100 µM (inactive) | > 100 µM (inactive) | > 100 µM (inactive) | > 100 µM (inactive) |  |
